# The source made the active and inactive calls. The calls are words filed in the database; no cut-off is given here. Non-standard residues stand in square brackets, D forms with d. Residues, ends and D or L forms follow the SMILES beside them.
# Biological target: T1, Heat shock protein HSP 90-beta (Homo sapiens, UniProt P08238)
# Test: Inhibition of C-terminal HSP90beta (527 to 724 residues) (unknown origin) interaction with CYP40 measured after 30 mins by Alphascreen assay
# Conditions: not given
# T1 sequence (P08238 whole entry, the tested form may be a part): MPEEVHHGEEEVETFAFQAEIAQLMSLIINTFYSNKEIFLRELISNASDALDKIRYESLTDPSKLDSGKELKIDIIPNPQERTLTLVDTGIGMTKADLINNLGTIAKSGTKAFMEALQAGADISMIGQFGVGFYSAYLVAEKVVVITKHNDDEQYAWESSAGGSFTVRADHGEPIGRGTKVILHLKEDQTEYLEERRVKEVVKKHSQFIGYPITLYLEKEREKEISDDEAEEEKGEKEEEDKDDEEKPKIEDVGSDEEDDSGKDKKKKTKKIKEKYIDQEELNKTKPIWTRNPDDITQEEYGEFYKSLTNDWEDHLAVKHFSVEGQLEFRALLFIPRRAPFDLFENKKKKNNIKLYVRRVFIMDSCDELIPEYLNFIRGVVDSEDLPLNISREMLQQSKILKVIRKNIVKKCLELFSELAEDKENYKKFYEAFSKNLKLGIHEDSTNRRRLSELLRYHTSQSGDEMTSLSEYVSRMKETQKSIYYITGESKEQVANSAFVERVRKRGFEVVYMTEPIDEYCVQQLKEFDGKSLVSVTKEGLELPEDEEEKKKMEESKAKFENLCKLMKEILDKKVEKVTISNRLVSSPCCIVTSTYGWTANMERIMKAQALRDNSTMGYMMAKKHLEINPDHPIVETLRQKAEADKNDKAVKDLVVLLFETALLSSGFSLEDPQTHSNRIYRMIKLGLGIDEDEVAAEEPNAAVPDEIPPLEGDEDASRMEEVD
row,IC50,Compound
1,50 µM,CC[C@H](C)[C@H](NC(=O)[C@H](CCCNC(=N)N)NC(=O)[C@H](C)NC(=O)[C@H](Cc1ccc(O)cc1)NC(=O)[C@H](C)NC(=O)[C@@H](N)CCCCN)C(=O)NCC(=O)N[C@@H](CC(N)=O)C(=O)N[C@@H](CO)C(=O)N[C@@H](Cc1ccc(O)cc1)C(=O)N[C@@H](Cc1ccccc1)C(=O)N[C@@H](CCCCN)C(=O)O

# Biological target: T1, Heat shock protein HSP 90-beta
# Test: Potency index, ratio of Kawakami-peptide IC50 to LB51 IC50 C-terminal HSP90beta (527 to 724 residues) (unknown origin) interaction with CYP40 measured after 30 mins by Alphascreen assay
# Conditions: not given
row,Ratio IC50,Compound
1,> 10,NCCCC[C@@H]1NC(=O)[C@H](Cc2ccccc2)NC(=O)[C@H](Cc2ccc(O)cc2)NC(=O)[C@H](CO)NC(=O)[C@H](CC(N)=O)NC1=O (cyclo(KNSYF))

# Biological target: T1, Heat shock protein HSP 90-beta
# Test: Inhibition of C-terminal HSP90beta (527 to 724 residues) (unknown origin) interaction with CYP40 at 1 to 25 uM measured after 30 mins by AlphaLISA assay
# Conditions: dose 1-25 µM
row,Compound,inhibition
1,NCCCC[C@@H]1NC(=O)[C@@H](Cc2ccccc2)NC(=O)[C@H](Cc2ccc(O)cc2)NC(=O)[C@H](CO)NC(=O)[C@H](CC(N)=O)NC1=O (cyclo(KNSY[dF])),inactive
2,C[C@@H]1NC(=O)[C@H](CC(N)=O)NC(=O)[C@H](CCCCN)NC(=O)[C@H](Cc2ccccc2)NC(=O)[C@H](Cc2ccc(O)cc2)NC1=O (cyclo(AYFKN)),Active
3,CC(C)C[C@@H]1NC(=O)[C@H](CCCCN)NC(=O)[C@H](Cc2ccccc2)NC(=O)[C@H](Cc2ccc(O)cc2)NC(=O)[C@H](CO)NC1=O (cyclo(FKLSY)),inactive
4,C[C@H]1NC(=O)[C@H](CCCCN)NC(=O)[C@H](Cc2ccccc2)NC(=O)[C@H](Cc2ccc(O)cc2)NC(=O)[C@H](CO)NC1=O,inactive

# Results, then the compound that gave them:
row,inhibition,Compound
1,Active,NCCCC[C@@H]1NC(=O)[C@H](Cc2ccccc2)NC(=O)[C@H](Cc2ccc(O)cc2)NC(=O)[C@H](CO)NC(=O)[C@H](Cc2ccccc2)NC1=O (cyclo(FKFSY))
2,inactive,NCCCC[C@@H]1NC(=O)[C@H](Cc2ccccc2)NC(=O)[C@H](Cc2ccc(O)cc2)NC(=O)[C@H](CO)NC(=O)[C@@H](CC(N)=O)NC1=O (cyclo(FK[dN]SY))
3,inactive,NCCCC[C@@H]1NC(=O)[C@H](Cc2ccccc2)NC(=O)[C@H](Cc2ccc(O)cc2)NC(=O)[C@H](CO)NC(=O)[C@H](CC(=O)O)NC1=O (cyclo(DSYFK))
4,inactive,NCCCC[C@@H]1NC(=O)[C@H](Cc2ccccc2)NC(=O)[C@H](Cc2ccc(O)cc2)NC(=O)[C@@H](CO)NC(=O)[C@H](CC(N)=O)NC1=O (cyclo(FKN[dS]Y))

# — ChEMBL document CHEMBL4680112, “Synthesis and Structure-Activity Relationships of Inhibitors That Target the C-Terminal MEEVD on Heat Shock Protein 90” (ACS Med Chem Lett, 2018)
